Experimental findings from article PMC5575254, “An allosteric ligand-binding site in the extracellular cap of K2P channels” (Nature Communications, 2017) are described below.

One test has as its target T1, TREK-2 (Homo sapiens, UniProt P57789).
T1 construct: expressed in transfected cells; host or cells: CHO cells, transient transfection
T1 sequence (P57789 1-538): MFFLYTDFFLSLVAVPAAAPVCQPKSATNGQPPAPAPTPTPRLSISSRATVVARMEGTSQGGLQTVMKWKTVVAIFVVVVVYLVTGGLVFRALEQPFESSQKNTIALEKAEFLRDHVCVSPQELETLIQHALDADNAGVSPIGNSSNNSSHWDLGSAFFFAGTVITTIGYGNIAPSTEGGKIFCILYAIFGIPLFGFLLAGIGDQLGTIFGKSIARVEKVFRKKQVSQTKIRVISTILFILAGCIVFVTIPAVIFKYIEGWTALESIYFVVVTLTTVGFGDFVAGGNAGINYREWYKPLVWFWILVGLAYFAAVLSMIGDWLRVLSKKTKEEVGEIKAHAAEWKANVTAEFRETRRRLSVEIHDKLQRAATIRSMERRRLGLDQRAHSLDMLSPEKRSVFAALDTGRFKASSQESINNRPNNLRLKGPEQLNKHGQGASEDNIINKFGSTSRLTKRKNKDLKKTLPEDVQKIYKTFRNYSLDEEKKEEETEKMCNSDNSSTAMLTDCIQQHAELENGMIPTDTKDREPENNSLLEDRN
In words: Whole-cell voltage clamp of CHO cells expressing TREK-2. The following applies: mean ± s.e.m. It is filed as cell-based. An excerpt: cDNA of the human TREK-1, TREK-2 and TRAAK channels were subcloned into the pEGFPN1 expression vector (Invitrogen), respectively. Mutations were introduced into TREK-1 or TRAAK by PCR using the QuickChange XL sitedirected mutagenesis kit (Agilent Technologies) and were subsequently confirmed by DNA sequencing.
Chinese hamster ovary (CHO) cells were provided by the Cell Bank of Chinese Academy of Sciences (Shanghai, China). CHO cells were maintained in DMEM/F12 (Gibco) supplemented with 10% fetal bovine serum (Gibco) and 100 μg ml^−1 penicillin-streptomycin (Cellgro) in a humidified incubator at 37 °C (5% CO2). For electrophysiology experiments, cells plated in 35 mm tissue culture dishes (Corning Incorporated) were transiently transfected with the plasmids using PolyJet™ reagent (SignaGen) according to the manufacturer’s instructions. Primers used in this study are listed in Supplementary Table 4.
All electrophysiological recordings were obtained using patch-clamp recordings in two different configurations: (1) whole cell for macroscopic current dose–response curves; and (2) outside-out and inside-out for macroscopic currents recordings.
All patch-clamp recordings were conducted 36–96 h after transfection with an Axopatch-200B amplifier (Molecular Devices) at room temperature (23–25 °C). The microelectrodes fashioned from 1.5 mm thin-walled borosilicate glass with filament were pulled from Flaming/Brown type micropipette puller (P-97; SUTTER INSTRUMENT) with the resistances of 3–7 MΩ (whole cell) or 7–15 MΩ (outside-out) when filled with a solution containing (in mM): 140 KCl, 2 MgCl2, 10 EGTA, 1 CaCl2, 10 HEPES (pH 7.3, adjusted with KOH). External solution contained (in mM): 150 NaCl, 5 KCl, 0.5 CaCl2, 1.2 MgCl2, 10 HEPES (pH 7.3, adjusted with NaOH). The current signals were filtered at 1 kHz and digitized at a 10 kHz sampling frequency by using DigiData 1440 A.
Data of whole-cell voltage clamp experiments were fitted using doseResp function. The half inhibition concentrations were derived from fits of the dose–response curves to the function:1 I/I0=A1+A2-A1/1+10^logx0-xP, where I 0 and I are current amplitudes before and after application of inhibitors; A 1 and A 2 are constants between 0 and 1; x is the concentration of inhibitor; x o is the concentration when 50% inhibition was reached (IC50), P is the Hill constant.

In a further test the test system is mice. Description: Forced swimming test. Conditions: chronic i.p. administration 10 days; TKDC 0.5, 1, 5 mg kg-1; fluoxetine 10 mg kg-1; vs vehicle. It is filed as in vivo, Male C57BL/6 mice. The method, then:
Male C57BL/6 mice, aged 8 weeks (weighing 18–20 g) were used for acute and chronic drug administration and behavioral tests. The mice were housed four per cage under a 12-h light–dark cycle. Mice were raised under stable conditions with food and water ad libitum. All animal studies and experimental procedures were approved by the Animal Care Committees of the Shanghai Institute of Materia Medica, Chinese Academy of Sciences, and experiments were carried out in accordance with EU Directive 2010/63/EU on the protection of animals used for scientific purposes. […] The mice were removed to a sound-attenuating testing room 3–4 h before testing. The behavioral tests were carried out 30 min and 24 h after acute and chronic drugs administration, respectively.
The mice were performed under normal light. The apparatus was a transparent Plexiglas cylinder with 30 cm height × 10 cm diameter and the water temperature at 23–25 °C were set to prevent mice from touching the bottom with their limbs. Mice were allowed to swim for 8 min, and their activity was videotaped. There was an extra 15-min swimming in the previous day. The duration of immobility defined as floating or remaining motionless was assessed. To avoid extremely active at the beginning of swimming, the first 2 min of swimming was also excluded as the tail suspension test. […]

Each structure is given as a SMILES string.

Regarding `CS(=O)(=O)N(CC(=O)N1CCc2ccccc2C1)c1ccc(Cl)cc1` [TKDC, N-(4-cholorphenyl)-N-(2-(3,4-dihydrosioquinolin-2(1H)-yl)-2-oxoethyl)methanesulfonamide], the half-inhibitory concentration (IC50) (as a rule, the midpoint of a concentration-inhibition curve) on TREK-2 is 5.2 ± 1.9 µM. For the same compound, the “immobility in the forced swimming test” value with mice was “decrease in immobility”.
